From patent US12077503B2, “Substituted cyclic amides and their use as herbicides” (FMC CORPORATION, priority 2015, dated 2024)

Columns and labels:
Format in all cases: in vivo
[1] = test system: ryegrass, Italian (Italian ryegrass, Lolium multiflorum); test: Test A postemergence; details: Lolium multiflorum, post-emergence, 240 h, read-out: Ryegrass, Italian plant response rating (0 to 100 scale)
In short: (§1)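 In a loam soil and sand blend, planted seeds got a preemergence directed soil spray, and young plants at the one- to two-leaf stage, 2–10 cm high, got a postemergence application; ~10 d greenhouse hold; injury rated visually, 0 = none, 100 = complete control.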

[2] = test system: pigweed (Amaranthus retroflexus); test: Test A postemergence; details: Amaranthus retroflexus, post-emergence, 240 h, read-out: Pigweed plant response rating (0 to 100 scale)
In short: as §1

[3] = test system: ragweed (common ragweed, Ambrosia elatior); test: Test A postemergence; details: Ambrosia artemisiifolia, post-emergence, 240 h, read-out: Ragweed plant response rating (0 to 100 scale)
In short: as §1

[4] = test system: blackgrass (Alopecurus myosuroides); test: Test A postemergence; details: Alopecurus myosuroides, post-emergence, 240 h, read-out: Blackgrass plant response rating (0 to 100 scale)
In short: as §1

[5] = test system: barnyardgrass (Echinochloa crus-galli); test: Test A postemergence; details: Echinochloa crus-galli, post-emergence, 240 h, read-out: Barnyardgrass plant response rating (0 to 100 scale)
In short: as §1

[6] = test system: Kochia (Kochia scoparia); test: Test A postemergence; details: Bassia scoparia, post-emergence, 240 h, read-out: Kochia plant response rating (0 to 100 scale)
In short: as §1

[7] = test system: corn (Zea mays); test: Test A postemergence; details: Zea mays, post-emergence, 240 h, read-out: Corn plant response rating (0 to 100 scale)
In short: as §1

[8] = test system: giant foxtail (Setaria faberii); test: Test A postemergence; details: Setaria faberi, post-emergence, 240 h, read-out: Foxtail, Giant plant response rating (0 to 100 scale)
In short: as §1

[9] = test system: wheat (Triticum aestivum); test: Test A postemergence; details: Triticum aestivum, post-emergence, 240 h, read-out: Wheat plant response rating (0 to 100 scale)
In short: as §1

[10] = test system: Galium (catchweed bedstraw, Galium aparine); test: Test A postemergence; details: Galium, post-emergence, 240 h, read-out: Galium plant response rating (0 to 100 scale)
In short: as §1

[11] = test system: ryegrass, Italian (Italian ryegrass, Lolium multiflorum); test: Test A preemergence; details: Lolium multiflorum, pre-emergence, 240 h, 0 to 100 scale where 0 is no effect and 100 is complete control, read-out: Ryegrass, Italian plant response rating
In short: as §1

[12] = test system: pigweed (Amaranthus retroflexus); test: Test A preemergence; details: Amaranthus retroflexus, pre-emergence, 240 h, 0 to 100 scale where 0 is no effect and 100 is complete control, read-out: Pigweed plant response rating
[13] = test system: ragweed (common ragweed, Ambrosia elatior); test: Test A preemergence; details: Ambrosia artemisiifolia, pre-emergence, 240 h, 0 to 100 scale where 0 is no effect and 100 is complete control, read-out: Ragweed plant response rating
In short: as §1

[14] = test system: barnyardgrass (Echinochloa crus-galli); test: Test A preemergence; details: Echinochloa crus-galli, pre-emergence, 240 h, 0 to 100 scale where 0 is no effect and 100 is complete control, read-out: Barnyardgrass plant response rating
In short: as §1

[15] = test system: Kochia (Kochia scoparia); test: Test A preemergence; details: Bassia scoparia, pre-emergence, 240 h, 0 to 100 scale where 0 is no effect and 100 is complete control, read-out: Kochia plant response rating
In short: as §1

[16] = test system: giant foxtail (Setaria faberii); test: Test A preemergence; details: Setaria faberi, pre-emergence, 240 h, 0 to 100 scale where 0 is no effect and 100 is complete control, read-out: Foxtail, Giant plant response rating
In short: as §1

[17] = test system: rice (Oryra sativa); test: Test B flooded paddy test; details: Oryza sativa, 250 g ai/ha, Flood; 0 to 100 scale where 0 is no effect and 100 is complete control; read-out: Rice plant response rating
In short: (§2)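 Plants at 2-leaf stage flooded to 3 cm above soil, with compounds applied directly to paddy water and that depth maintained. Plants kept in greenhouse 13–15 d. Visual rating versus controls on a 0 (no effect) to 100 (complete control) scale.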

[18] = test system: ducksalad (Heteranthera limosa); test: Test B flooded paddy test; details: Heteranthera limosa, 250 g ai/ha, Flood; 0 to 100 scale where 0 is no effect and 100 is complete control; read-out: Ducksalad plant response rating
In short: as §2

[19] = test system: barnyardgrass (Echinochloa crus-galli); test: Test B flooded paddy test; details: Echinochloa crus-galli, 250 g ai/ha, Flood; 0 to 100 scale where 0 is no effect and 100 is complete control; read-out: Barnyardgrass plant response rating
In short: as §2

[20] = test system: sedge, umbrella (small-flower umbrella sedge, Cyperus difformis); test: Test B flooded paddy test; details: Cyperus difformis, 250 g ai/ha, Flood; 0 to 100 scale where 0 is no effect and 100 is complete control; read-out: Sedge, Umbrella plant response rating
In short: as §2

[21] = 125 g ai/ha, postemergence, visual injury vs untreated controls after approx. 10 d, 0 = no effect, 100 = complete control
[22] = Postemergence, 31 g ai/ha, 0 is no effect, 100 is complete control
[23] = 125 g ai/ha, preemergence, visual injury rating, approximately 10 d

`N#Cc1ccc([C@H]2CNC(=O)[C@@H]2C(=O)Nc2cccc(F)c2F)cc1F` [Compound 1193] showed a pest or weed control at 125 g/ha [1, 21] of 0%, a pest or weed control at 31 g/ha [1, 22] of 0% and a pest or weed control at 125 g/ha [2, 21] of 0%. The pest or weed control at 31 g/ha [2, 22] was 0%, the pest or weed control at 125 g/ha [3, 21] was 0% and the pest or weed control at 31 g/ha [3, 22] was 0%. For the same compound, the pest or weed control at 125 g/ha [4, 21] was 0%, the pest or weed control at 31 g/ha [4, 22] was 0% and the pest or weed control at 125 g/ha [5, 21] was 70%. The pest or weed control at 31 g/ha [5, 22] was 0%, the pest or weed control at 125 g/ha [6, 21] was 0% and the pest or weed control at 31 g/ha [6, 22] was 0%. It also gave a plant injury at 125 g/ha [7, 21] of 0%, a plant injury at 31 g/ha [7, 22] of 0% and a pest or weed control at 125 g/ha [8, 21] of 30%. It also gave a pest or weed control at 31 g/ha [8, 22] of 0%, a plant injury at 125 g/ha [9, 21] of 0% and a plant injury at 31 g/ha [9, 22] of 0%. It also gave a pest or weed control at 125 g/ha [10, 21] of 0%, a pest or weed control at 31 g/ha [10, 22] of 0% and a pest or weed control at 31 g/ha ([11]; 31 g ai/ha, Preemergence) of 0%. It also gave a pest or weed control at 125 g/ha [11, 23] of 0%, a pest or weed control at 31 g/ha ([12]; 31 g ai/ha, Preemergence) of 0% and a pest or weed control at 125 g/ha [12, 23] of 0%. For the same compound, the pest or weed control at 31 g/ha ([13]; 31 g ai/ha, Preemergence) was 0%, the pest or weed control at 125 g/ha [13, 23] was 0% and the pest or weed control at 31 g/ha ([14]; 31 g ai/ha, Preemergence) was 40%. For the same compound, the pest or weed control at 125 g/ha [14, 23] was 90%, the pest or weed control at 31 g/ha ([15]; 31 g ai/ha, Preemergence) was 0% and the pest or weed control at 125 g/ha [15, 23] was 0%. For the same compound, the pest or weed control at 31 g/ha ([16]; 31 g ai/ha, Preemergence) was 0%, the pest or weed control at 125 g/ha [16, 23] was 80% and the pest or weed control at 250 g/ha [17] was 30%. The pest or weed control at 250 g/ha [18] was 90%, the pest or weed control at 250 g/ha [19] was 75% and the pest or weed control at 250 g/ha [20] was 0%.
